This note sets out measurements from patent US8691865B2 (AbbVie Inc., priority 2008, dated 2014).

Sequence of human Cav2.2 (Q00975 whole entry): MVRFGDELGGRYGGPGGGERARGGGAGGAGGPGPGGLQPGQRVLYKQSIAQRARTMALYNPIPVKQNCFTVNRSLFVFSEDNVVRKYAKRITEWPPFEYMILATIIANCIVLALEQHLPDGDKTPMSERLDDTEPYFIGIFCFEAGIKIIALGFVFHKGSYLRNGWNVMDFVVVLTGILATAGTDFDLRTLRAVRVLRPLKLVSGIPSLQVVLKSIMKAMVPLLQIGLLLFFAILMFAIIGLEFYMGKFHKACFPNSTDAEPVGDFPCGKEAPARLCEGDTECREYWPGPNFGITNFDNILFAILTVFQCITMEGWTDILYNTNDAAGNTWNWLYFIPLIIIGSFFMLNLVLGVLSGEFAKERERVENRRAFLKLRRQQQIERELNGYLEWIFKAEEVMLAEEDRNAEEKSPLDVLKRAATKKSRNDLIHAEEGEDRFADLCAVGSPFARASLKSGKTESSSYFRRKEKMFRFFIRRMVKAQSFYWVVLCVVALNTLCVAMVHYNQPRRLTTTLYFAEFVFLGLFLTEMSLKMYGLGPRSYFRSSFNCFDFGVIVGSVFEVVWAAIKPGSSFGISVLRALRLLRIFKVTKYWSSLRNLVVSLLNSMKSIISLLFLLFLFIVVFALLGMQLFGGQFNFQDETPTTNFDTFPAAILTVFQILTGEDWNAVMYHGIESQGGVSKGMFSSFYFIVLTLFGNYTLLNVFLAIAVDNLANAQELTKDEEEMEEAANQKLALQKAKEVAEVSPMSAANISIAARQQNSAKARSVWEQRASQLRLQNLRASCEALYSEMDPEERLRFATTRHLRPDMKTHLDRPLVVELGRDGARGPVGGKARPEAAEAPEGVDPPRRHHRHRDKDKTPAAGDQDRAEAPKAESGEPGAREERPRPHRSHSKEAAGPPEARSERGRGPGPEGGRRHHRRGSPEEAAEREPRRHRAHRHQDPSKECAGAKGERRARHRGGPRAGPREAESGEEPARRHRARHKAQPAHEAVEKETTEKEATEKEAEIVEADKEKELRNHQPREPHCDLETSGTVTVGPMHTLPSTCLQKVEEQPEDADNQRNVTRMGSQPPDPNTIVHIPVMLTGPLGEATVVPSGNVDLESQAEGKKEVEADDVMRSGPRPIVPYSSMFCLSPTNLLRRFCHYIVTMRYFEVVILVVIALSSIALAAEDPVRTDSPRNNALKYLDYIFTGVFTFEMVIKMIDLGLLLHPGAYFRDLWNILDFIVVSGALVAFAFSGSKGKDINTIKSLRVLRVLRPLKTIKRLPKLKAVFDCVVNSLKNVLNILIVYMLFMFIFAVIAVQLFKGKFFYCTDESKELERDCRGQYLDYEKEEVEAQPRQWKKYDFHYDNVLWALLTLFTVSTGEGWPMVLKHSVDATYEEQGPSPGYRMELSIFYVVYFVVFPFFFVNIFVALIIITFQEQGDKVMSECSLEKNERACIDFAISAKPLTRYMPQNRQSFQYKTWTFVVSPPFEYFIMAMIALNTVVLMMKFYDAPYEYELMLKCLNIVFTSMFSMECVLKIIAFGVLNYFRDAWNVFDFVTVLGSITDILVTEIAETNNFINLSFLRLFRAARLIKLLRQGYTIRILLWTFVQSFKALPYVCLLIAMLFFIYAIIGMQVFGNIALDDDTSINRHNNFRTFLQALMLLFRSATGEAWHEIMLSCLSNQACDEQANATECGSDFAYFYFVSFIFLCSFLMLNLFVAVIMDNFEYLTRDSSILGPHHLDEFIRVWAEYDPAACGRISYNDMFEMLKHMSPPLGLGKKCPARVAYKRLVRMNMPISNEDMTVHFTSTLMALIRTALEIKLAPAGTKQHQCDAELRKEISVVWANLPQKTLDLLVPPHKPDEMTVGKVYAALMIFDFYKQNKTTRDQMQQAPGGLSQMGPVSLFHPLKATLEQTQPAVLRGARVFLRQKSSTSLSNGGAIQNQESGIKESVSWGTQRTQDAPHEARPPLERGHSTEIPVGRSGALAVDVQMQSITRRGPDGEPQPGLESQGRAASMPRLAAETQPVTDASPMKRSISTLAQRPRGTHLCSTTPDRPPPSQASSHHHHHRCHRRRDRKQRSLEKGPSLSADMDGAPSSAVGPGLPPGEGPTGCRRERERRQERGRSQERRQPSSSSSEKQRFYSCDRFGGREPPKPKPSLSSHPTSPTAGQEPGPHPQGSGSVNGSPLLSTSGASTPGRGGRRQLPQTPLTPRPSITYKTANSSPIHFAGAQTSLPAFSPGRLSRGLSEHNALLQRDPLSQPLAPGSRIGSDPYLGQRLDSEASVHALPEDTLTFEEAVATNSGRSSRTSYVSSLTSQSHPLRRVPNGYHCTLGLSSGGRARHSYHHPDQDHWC
Sequence of human Cav2.2 (P54289 25-956 partner limits assumed): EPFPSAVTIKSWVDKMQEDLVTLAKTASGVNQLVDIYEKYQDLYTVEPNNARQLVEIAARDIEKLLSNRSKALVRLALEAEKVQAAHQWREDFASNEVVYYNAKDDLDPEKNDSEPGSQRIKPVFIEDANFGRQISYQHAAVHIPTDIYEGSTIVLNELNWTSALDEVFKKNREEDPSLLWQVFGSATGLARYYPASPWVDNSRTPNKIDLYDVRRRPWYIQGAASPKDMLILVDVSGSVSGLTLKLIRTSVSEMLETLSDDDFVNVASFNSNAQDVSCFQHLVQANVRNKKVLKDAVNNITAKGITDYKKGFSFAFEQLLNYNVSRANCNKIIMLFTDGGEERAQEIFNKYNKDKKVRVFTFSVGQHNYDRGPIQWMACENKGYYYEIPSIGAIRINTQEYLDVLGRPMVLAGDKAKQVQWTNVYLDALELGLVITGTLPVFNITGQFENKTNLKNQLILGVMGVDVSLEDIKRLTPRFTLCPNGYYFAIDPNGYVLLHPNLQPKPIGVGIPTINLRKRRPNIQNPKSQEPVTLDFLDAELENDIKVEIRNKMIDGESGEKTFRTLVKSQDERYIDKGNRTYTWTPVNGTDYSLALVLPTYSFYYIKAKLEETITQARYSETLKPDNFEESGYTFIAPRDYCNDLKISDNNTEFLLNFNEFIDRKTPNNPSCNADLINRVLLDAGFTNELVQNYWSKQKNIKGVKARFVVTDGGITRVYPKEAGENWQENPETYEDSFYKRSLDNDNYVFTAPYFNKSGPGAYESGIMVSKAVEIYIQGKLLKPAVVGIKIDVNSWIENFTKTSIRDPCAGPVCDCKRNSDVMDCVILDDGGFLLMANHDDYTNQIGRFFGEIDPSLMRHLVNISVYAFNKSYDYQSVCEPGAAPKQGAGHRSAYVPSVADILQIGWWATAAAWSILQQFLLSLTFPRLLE
Sequence of human Cav2.2 (P54289 957-1103 partner limits assumed): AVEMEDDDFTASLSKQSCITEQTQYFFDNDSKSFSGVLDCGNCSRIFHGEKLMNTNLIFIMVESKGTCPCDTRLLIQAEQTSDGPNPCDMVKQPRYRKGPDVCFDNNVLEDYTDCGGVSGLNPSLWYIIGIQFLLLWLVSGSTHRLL
Sequence of human Cav2.2 (P54284 whole entry partner): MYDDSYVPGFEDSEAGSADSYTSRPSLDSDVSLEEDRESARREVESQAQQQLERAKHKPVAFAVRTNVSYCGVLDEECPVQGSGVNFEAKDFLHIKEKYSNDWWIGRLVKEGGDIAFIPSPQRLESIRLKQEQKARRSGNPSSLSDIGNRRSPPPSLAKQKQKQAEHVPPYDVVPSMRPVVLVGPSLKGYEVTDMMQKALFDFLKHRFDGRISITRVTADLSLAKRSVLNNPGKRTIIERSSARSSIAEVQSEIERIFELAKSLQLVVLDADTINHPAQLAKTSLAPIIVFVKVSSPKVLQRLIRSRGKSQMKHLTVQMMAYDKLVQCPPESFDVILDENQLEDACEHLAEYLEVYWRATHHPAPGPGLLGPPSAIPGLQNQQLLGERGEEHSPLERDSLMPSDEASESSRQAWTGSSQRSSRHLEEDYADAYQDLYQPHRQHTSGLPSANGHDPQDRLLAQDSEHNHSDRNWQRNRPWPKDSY

The first experiment has as its target human Cav2.2 (Homo sapiens, UniProt Q00975). The experiment is described as follows: Assessment of calcium channel activity using FLIPR (Ca2+ influx in IMR32 cells). Format: cell-based.
Conditions: not given
On the procedure: (i) In Vitro Methods—Assessment of Calcium Channel Activity Using FLIPR:
The IMR32 cells were maintained in MEM media containing 10% (v/v) FBS, 1% (v/v) antibiotic/antimitotic, 1% (v/v) sodium pyruvate and 1% (v/v) MEM NEAA. Following dissociation in 0.05% (v/v) trypsin/EDTA, cells were seeded into black 1×96-well plates (Corning Cellbind) at a density of 1−1.2×10^5 cells/well and incubated in the maintenance media above for 48 hours at 37° C. […] To determine the IC50 values, the percent inhibition of the compound at each concentration was determined relative to the activity in the absence of inhibitor, and data was fitted using non-linear regression sigmoidal dose response curve analysis with GraphPad Prism®.
For the molecule `O=C(N[C@@H]1CC[C@H]2CN(Cc3cccc(C(F)(F)F)c3)C[C@H]21)C(c1ccccc1)c1ccccc1` (relative stereo) [Example 145, 2,2-diphenyl-N-{(3aS*,4R*,6aR*)-2-[3-(trifluoromethyl)benzyl]octahydrocyclopenta[c]pyrrol-4-yl}acetamide], the IC50 is 1.14 µM.
Still for that read-out and setting: as for `CCCC(C(=O)NC1CCC2CN(Cc3ccc(F)cc3)CC21)N(C)C(=O)OC(C)(C)C` (single isomer, unassigned) [Example 315], the figure is 5.36 µM; as for `CCCC(C(=O)NC1CCC2CN(Cc3ccc(F)cc3)CC21)N(C)C(=O)OC(C)(C)C` (single isomer, unassigned) [Example 318], 1.07 µM.
Same read-out and setting: as for `CC(C)C[C@H](NC(=O)OC(C)(C)C)C(=O)N[C@@H]1CC[C@@H]2CN(Cc3cccc(C(F)(F)F)c3)C[C@@H]21` (stereo in doubt) [Example 137, N^2-(tert-butyloxycarbonyl)-N^1-{(3aR*,4R*,6aS*)-2-[3-(trifluoromethyl)benzyl]octahydrocyclopenta[c]pyrrol-4-yl}-L-leucinamide], the figure is 0.65 µM.

The experiment is the same for the next values; noted with them: read-out: IC50 (μM) or percent inhibition (* indicates 3 minute incubation, otherwise 60 minute); IC50; 60 minute pre-incubation with compound; IMR32 cells, 80 mM KCl depolarization.
For `O=C(CCCCC(c1ccc(F)cc1)c1ccc(F)cc1)N[C@@H]1CC[C@H]2CN(Cc3cccc(C(F)(F)F)c3)C[C@H]21` (relative stereo) [Example 140, 6,6-bis(4-fluorophenyl)-N-{(3aS*,4R*,6aR*)-2-[3-(trifluoromethyl)benzyl]octahydrocyclopenta[c]pyrrol-4-yl}hexanamide], the IC50 was 0.62 µM.
On the same count and under the same terms, as for `O=C(CCCC(c1ccc(F)cc1)c1ccc(F)cc1)N[C@@H]1CC[C@H]2CN(Cc3cccc(C(F)(F)F)c3)C[C@H]21` (relative stereo) [Example 142, 5,5-bis(4-fluorophenyl)-N-{(3aS*,4R*,6aR*)-2-[3-(trifluoromethyl)benzyl]octahydrocyclopenta[c]pyrrol-4-yl}pentanamide], the figure is 0.86 µM.
The same measure, in the same setting: with `O=C(CC(c1ccc(F)cc1)c1ccc(F)cc1)N[C@@H]1CC[C@H]2CN(Cc3cccc(C(F)(F)F)c3)C[C@H]21` (relative stereo) [Example 143, 3,3-bis(4-fluorophenyl)-N-{(3aS*,4R*,6aR*)-2-[3-(trifluoromethyl)benzyl]octahydrocyclopenta[c]pyrrol-4-yl}propanamide] the figure was 0.61 µM; with `O=C(CCC(c1ccc(F)cc1)c1ccc(F)cc1)N[C@@H]1CC[C@H]2CN(Cc3cccc(C(F)(F)F)c3)C[C@H]21` (relative stereo) [Example 144, 4,4-bis(4-fluorophenyl)-N-{(3aS*,4R*,6aR*)-2-[3-(trifluoromethyl)benzyl]octahydrocyclopenta[c]pyrrol-4-yl}butanamide], 1.04 µM.
Still for that read-out and setting: as for `O=C(N[C@@H]1CC[C@H]2CN(Cc3cccc(C(F)(F)F)c3)C[C@H]21)C(c1ccc(F)cc1)c1ccc(F)cc1` (relative stereo) [Example 146, 2,2-bis(4-fluorophenyl)-N-{(3aS*,4R*,6aR*)-2-[3-(trifluoromethyl)benzyl]octahydrocyclopenta[c]pyrrol-4-yl}acetamide], the figure is 0.79 µM.
Consider `CC(C)(C)C(C(=O)N[C@@H]1CC[C@H]2CN(Cc3cccc(C(F)(F)F)c3)C[C@H]21)c1ccccc1` (relative stereo) [Example 147, 3,3-dimethyl-2-phenyl-N-{(3aS*,4R*,6aR*)-2-[3-(trifluoromethyl)benzyl]octahydrocyclopenta[c]pyrrol-4-yl}butanamide], for which the IC50 was found to be 0.51 µM.
Same read-out and setting: with `CC(C)C[C@H](NC(=O)OC(C)(C)C)C(=O)N[C@@H]1CC[C@H]2CN(Cc3cccc(C(F)(F)F)c3)C[C@H]21` (relative stereo) [Example 148, N^2-(tert-butyloxycarbonyl)-N^1-{(3aS*,4R*,6aR*)-2-[3-(trifluoromethyl)benzyl]octahydrocyclopenta[c]pyrrol-4-yl}-L-leucinamide] the figure was 0.83 µM; with `CC(C)C[C@@H](NC(=O)OC(C)(C)C)C(=O)N[C@@H]1CC[C@H]2CN(Cc3cccc(C(F)(F)F)c3)C[C@H]21` (relative stereo) [Example 149, N^2-(tert-butyloxycarbonyl)-N^1-{(3aS*,4R*,6aR*)-2-[3-(trifluoromethyl)benzyl]octahydrocyclopenta[c]pyrrol-4-yl}-D-leucinamide], 0.62 µM.
`CC(C)C[C@H](C(=O)N[C@@H]1CC[C@H]2CN(Cc3cccc(C(F)(F)F)c3)C[C@H]21)N(C)C(=O)OC(C)(C)C` (relative stereo) [Example 150, N^2-(tert-butyloxycarbonyl)-N^2-methyl-N^1-{(3aS*,4R*,6aR*)-2-[3-(trifluoromethyl)benzyl]octahydrocyclopenta[c]pyrrol-4-yl}-D-leucinamide]: the IC50 was determined as 0.51 µM.
The same measure, in the same setting: as for `CN[C@H](CC(C)C)C(=O)N[C@H]1CC[C@H]2CN(Cc3cccc(C(F)(F)F)c3)C[C@H]21` (relative stereo) [Example 160, N^2-methyl-N^1-{(3aS*,4S*,6aR*)-2-[3-(trifluoromethyl)benzyl]octahydrocyclopenta[c]pyrrol-4-yl}-D-leucinamide], the figure is 3.78 µM; as for `CC(C)C[C@H](N)C(=O)N[C@@H]1CC[C@H]2CN(Cc3cccc(C(F)(F)F)c3)C[C@H]21` (relative stereo) [Example 161, N^1-{(3aS*,4R*,6aR*)-2-[3-(trifluoromethyl)benzyl]octahydrocyclopenta[c]pyrrol-4-yl}-L-leucinamide], 3.89 µM; as for `CC(C)C[C@@H](N)C(=O)N[C@@H]1CC[C@H]2CN(Cc3cccc(C(F)(F)F)c3)C[C@H]21` (relative stereo) [Example 162, N^1-{(3aS*,4R*,6aR*)-2-[3-(trifluoromethyl)benzyl]octahydrocyclopenta[c]pyrrol-4-yl}-D-leucinamide], 3.94 µM.
Still for that read-out and setting: with `CN[C@H](CC(C)C)C(=O)N[C@@H]1CC[C@H]2CN(Cc3cccc(C(F)(F)F)c3)C[C@H]21` (relative stereo) [Example 163, N^2-methyl-N^1-{(3aS*,4R*,6aR*)-2-[3-(trifluoromethyl)benzyl]octahydrocyclopenta[c]pyrrol-4-yl}-D-leucinamide] the figure was 4.59 µM.
Still for that read-out and setting: with `O=S(=O)(N[C@H]1CC[C@H]2CN(Cc3cccc(C(F)(F)F)c3)C[C@H]21)c1cccc(C(F)(F)F)c1` (relative stereo) [Example 185, 3-(trifluoromethyl)-N-{(3aS*,4S*,6aR*)-2-[3-(trifluoromethyl)benzyl]octahydrocyclopenta[c]pyrrol-4-yl}benzenesulfonamide] the figure was 0.91 µM.
`FC(F)(F)c1cccc(CN2C[C@@H]3CC[C@H](N(C4CC4)C4CC4)[C@@H]3C2)c1` (relative stereo) [Example 196, (3aS*,4S*,6aR*)-N,N-dicyclopropyl-2-[3-(trifluoromethyl)benzyl]octahydrocyclopenta[c]pyrrol-4-amine]: the IC50 was determined as 3.18 µM.
The same measure, in the same setting: as for `O=S(=O)(c1cccc(C(F)(F)F)c1)N(C1CC1)[C@H]1CC[C@H]2CN(Cc3ccccc3)C[C@H]21` (relative stereo) [Example 199, N-[(3aS*,4S*,6aR*)-2-benzyloctahydrocyclopenta[c]pyrrol-4-yl]-N-cyclopropyl-3-(trifluoromethyl)benzenesulfonamide], the figure is 2.21 µM; as for `O=S(=O)(c1cccc(C(F)(F)F)c1)N(C1CC1)[C@H]1CC[C@H]2CN(CCCCCC(c3ccc(F)cc3)c3ccc(F)cc3)C[C@H]21` (relative stereo) [Example 202, N-{(3aS*,4S*,6aR*)-2-[6,6-bis(4-fluorophenyl)hexyl]octahydrocyclopenta[c]pyrrol-4-yl}-N-cyclopropyl-3-(trifluoromethyl)benzenesulfonamide], 0.83 µM; as for `O=S(=O)(c1cccc(C(F)(F)F)c1)N(C1CC1)[C@H]1CC[C@H]2CN(CCC(c3ccc(F)cc3)c3ccc(F)cc3)C[C@H]21` (relative stereo) [Example 203, N-{(3aS*,4S*,6aR*)-2-[3,3-bis(4-fluorophenyl)propyl]octahydrocyclopenta[c]pyrrol-4-yl}-N-cyclopropyl-3-(trifluoromethyl)benzenesulfonamide], 1.54 µM.
In the case of `O=S(=O)(c1cccc(C(F)(F)F)c1)N(C1CC1)[C@H]1CC[C@H]2CN(Cc3cccc(C(F)(F)F)c3)C[C@H]21` (relative stereo) [Example 204, N-cyclopropyl-3-(trifluoromethyl)-N-{(3aS*,4S*,6aR*)-2-[3-(trifluoromethyl)benzyl]octahydrocyclopenta[c]pyrrol-4-yl}benzenesulfonamide], the IC50 turned out to be 1.27 µM.
Same read-out and setting: with `CC(C)C(C(=O)N(C)[C@@H]1CC[C@H]2CN(Cc3ccccc3)C[C@H]21)c1ccccc1` (relative stereo) [Example 215, N-[(3aS*,4R*,6aR*)-2-benzyloctahydrocyclopenta[c]pyrrol-4-yl]-N,3-dimethyl-2-phenylbutanamide] the figure was 1.99 µM; with `CC(C)C[C@@H](NC(=O)OC(C)(C)C)C(=O)N[C@H]1CC[C@H]2CN(Cc3cccc(C(F)(F)F)c3)C[C@H]21` (stereo in doubt) [Example 138, N^2-(tert-butyloxycarbonyl)-N^1-{(3aS*,4S*,6aR*)-2-[3-(trifluoromethyl)benzyl]octahydrocyclopenta[c]pyrrol-4-yl}-D-leucinamide], 0.82 µM.
Still for that read-out and setting: with `CC(C)C[C@H](N)C(=O)N[C@H]1CC[C@H]2CN(Cc3cccc(C(F)(F)F)c3)C[C@H]21` (stereo in doubt) [Example 158, N^1-{(3aS*,4S*,6aR*)-2-[3-(trifluoromethyl)benzyl]octahydrocyclopenta[c]pyrrol-4-yl}-L-leucinamide] the figure was 3.51 µM.
